# Measurements from US20260262643A1, “HERBICIDAL BENZOXAZINES” (FMC CORPORATION, priority 2022, published 2026).
# Columns and labels:
# barnyardgrass [1] = test: Test C preemergence; format: in vivo, Echinochloa crusgalli; settings: for Barnyardgrass plant response rating: preemergence; for Plant response rating, Barnyardgrass: Preemergence
# Method in brief: (§1)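 Visual injury score, 0–100 (100 = complete control), taken 10 days after treatment relative to untreated controls. Pre: directed spray onto soil over sown seeds. Post: foliar spray at one- to two-leaf stage, 2–10 cm. Solvent/surfactant formulation; loam–sand soil; greenhouse.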
# blackgrass [2] = test: Test C preemergence; format: in vivo, Alopecurus myosuroides; settings: for Blackgrass plant response rating: preemergence; for Plant response rating, Blackgrass: Preemergence
# Method in brief: as §1
# corn [3] = test: Test C preemergence; format: in vivo, Zea mays; settings: for Corn plant response rating: preemergence; for Plant response rating, Corn: Preemergence
# Method in brief: as §1
# green foxtail [4] = test: Test C preemergence; format: in vivo, Setaria viridis; settings: for Foxtail, Green plant response rating: preemergence; for Plant response rating, Foxtail, Green: Preemergence
# Method in brief: as §1
# kochia [5] = test: Test C preemergence; format: in vivo, Bassia scoparia; settings: for Kochia plant response rating: preemergence; for Plant response rating, Kochia: Preemergence
# Method in brief: as §1
# oat, wild [6] = test: Test C preemergence; format: in vivo, Avena fatua; settings: for Oat, Wild plant response rating: preemergence; for Plant response rating, Oat, Wild: Preemergence
# Method in brief: as §1
# pigweed, palmer [7] = test: Test C preemergence; format: in vivo, Amaranthus palmeri; settings: for Pigweed, Palmer plant response rating: preemergence; for Plant response rating, Pigweed, Palmer: Preemergence
# Method in brief: as §1
# ragweed [8] = test: Test C preemergence; format: in vivo, Ambrosia artemisiifolia; settings: for Ragweed plant response rating: preemergence; for Plant response rating, Ragweed: Preemergence
# Method in brief: as §1
# ryegrass, Italian [9] = test: Test C preemergence; format: in vivo, Lolium multiflorum; settings: for Ryegrass, Italian plant response rating: preemergence; for Plant response rating, Ryegrass, Italian: Preemergence
# Method in brief: as §1
# soybean [10] = test: Test C preemergence; format: in vivo, Glycine max; settings: for Soybean plant response rating: preemergence; for Plant response rating, Soybean: Preemergence
# Method in brief: as §1
# wheat [11] = test: Test C preemergence; format: in vivo, Triticum aestivum; settings: for Wheat plant response rating: preemergence; for Plant response rating, Wheat: Preemergence
# Method in brief: as §1
# barnyardgrass [12] = test: Test C postemergence; format: in vivo, Echinochloa crusgalli; settings: 10 days
# Method in brief: as §1
# blackgrass [13] = test: Test C postemergence; format: in vivo, Alopecurus myosuroides; settings: 10 days
# Method in brief: as §1
# corn [14] = test: Test C postemergence; format: in vivo, Zea mays; settings: 10 days
# Method in brief: as §1
# green foxtail [15] = test: Test C postemergence; format: in vivo, Setaria viridis; settings: 10 days
# Method in brief: as §1
# kochia [16] = test: Test C postemergence; format: in vivo, Bassia scoparia; settings: 10 days
# Method in brief: as §1
# oat, wild [17] = test: Test C postemergence; format: in vivo, Avena fatua; settings: 10 days
# Method in brief: as §1
# pigweed, palmer [18] = test: Test C postemergence; format: in vivo, Amaranthus palmeri; settings: 10 days
# Method in brief: as §1
# ragweed [19] = test: Test C postemergence; format: in vivo, Ambrosia artemisiifolia; settings: 10 days
# Method in brief: as §1
# ryegrass, Italian [20] = test: Test C postemergence; format: in vivo, Lolium multiflorum; settings: 10 days
# Method in brief: as §1
# soybean [21] = test: Test C postemergence; format: in vivo, Glycine max; settings: 10 days
# Method in brief: as §1
# wheat [22] = test: Test C postemergence; format: in vivo, Triticum aestivum; settings: 10 days
# Method in brief: as §1
# galium = test: Test C postemergence; format: in vivo, Galium aparine; settings: 10 days
# Method in brief: as §1
# horseweed = test: Test C postemergence; format: in vivo, Erigeron canadensis; settings: 10 days
# Method in brief: as §1
# barnyardgrass [23] = test: Test D flooded paddy test; format: in vivo, Echinochloa crus-galli; settings: 250 g ai/ha, applied to paddy water, visual rating after 13 to 14 days, scale 0 to 100 (0 no effect, 100 complete control)
# Method in brief: (§2)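 Seedlings reached the 2-leaf stage, then pots were flooded to 3 cm over the soil surface. Compound was applied into the water, depth was maintained, and plants stayed in the greenhouse 13 to 14 days before visual scoring (0–100) relative to controls.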
# ducksalad = test: Test D flooded paddy test; format: in vivo, Heteranthera limosa; settings: 250 g ai/ha, applied to paddy water, visual rating after 13 to 14 days, scale 0 to 100 (0 no effect, 100 complete control)
# Method in brief: as §2
# rice = test: Test D flooded paddy test; format: in vivo, Oryza sativa; settings: 250 g ai/ha, applied to paddy water, visual rating after 13 to 14 days, scale 0 to 100 (0 no effect, 100 complete control)
# Method in brief: as §2
# sedge, umbrella = test: Test D flooded paddy test; format: in vivo, Cyperus difformis; settings: 250 g ai/ha, applied to paddy water, visual rating after 13 to 14 days, scale 0 to 100 (0 no effect, 100 complete control)
# Method in brief: as §2
# [24] = 500 g ai/ha, 0 to 100 scale (0 no effect, 100 complete control)
# [25] = 125 g ai/ha, 0 to 100 scale, 0 no effect, 100 complete control
# [26] = 500 g ai/ha, postemergence, 0 to 100 scale (0 no effect, 100 complete control)
# [27] = Postemergence, 125 g ai/ha, 0 to 100 scale (0 no effect, 100 complete control)
# [28] = 500 g ai/ha, visual rating after 10 days, 0 to 100 scale (0 no effect, 100 complete control)
# [29] = Test C, 125 g ai/ha, 0 to 100 scale (0 no effect, 100 complete control)
# [30] = 125 g ai/ha, postemergence, 0 to 100 scale, 0 no effect, 100 complete control
# [31] = Postemergence, 500 g ai/ha, visual 0 to 100 scale (0 no effect, 100 complete control)
smiles,measurement,setting,value
Cc1ccc(-n2cnc(C(C)C)n2)cc1C(=O)N1CC(C(F)(F)F)Oc2c(Cl)cccc21 (centres unmarked) [Compound 354],Barnyardgrass plant response rating,barnyardgrass [1]; [24],100
same,"Plant response rating, Barnyardgrass",barnyardgrass [1]; [25],90
same,Blackgrass plant response rating,blackgrass [2]; [24],90
same,"Plant response rating, Blackgrass",blackgrass [2]; [25],80
same,Corn plant response rating,corn [3]; [24],40
same,"Plant response rating, Corn",corn [3]; [25],20
same,"Foxtail, Green plant response rating",green foxtail [4]; [24],100
same,"Plant response rating, Foxtail, Green",green foxtail [4]; [25],100
same,Kochia plant response rating,kochia [5]; [24],80
same,"Plant response rating, Kochia",kochia [5]; [25],0
same,"Oat, Wild plant response rating","oat, wild [6]; [24]",90
same,"Plant response rating, Oat, Wild","oat, wild [6]; [25]",80
same,"Pigweed, Palmer plant response rating","pigweed, palmer [7]; [24]",100
same,"Plant response rating, Pigweed, Palmer","pigweed, palmer [7]; [25]",100
same,Ragweed plant response rating,ragweed [8]; [24],100
same,"Plant response rating, Ragweed",ragweed [8]; [25],10
same,"Ryegrass, Italian plant response rating","ryegrass, Italian [9]; [24]",100
same,"Plant response rating, Ryegrass, Italian","ryegrass, Italian [9]; [25]",90
same,Soybean plant response rating,soybean [10]; [24],100
same,"Plant response rating, Soybean",soybean [10]; [25],50
same,Wheat plant response rating,wheat [11]; [24],90
same,"Plant response rating, Wheat",wheat [11]; [25],30
same,"Plant response rating, Barnyardgrass",barnyardgrass [12]; [26],70
same,"Plant response rating, Barnyardgrass",barnyardgrass [12]; [27],30
same,"Plant response rating, Blackgrass",blackgrass [13]; [26],20
same,"Plant response rating, Blackgrass",blackgrass [13]; [27],0
same,"Plant response rating, Corn",corn [14]; [26],60
same,"Plant response rating, Corn",corn [14]; [27],20
same,"Plant response rating, Foxtail, Green",green foxtail [15]; [26],90
same,"Plant response rating, Foxtail, Green",green foxtail [15]; [27],40
same,"Plant response rating, Kochia",kochia [16]; [26],90
same,"Plant response rating, Kochia",kochia [16]; [27],80
same,"Plant response rating, Oat, Wild","oat, wild [17]; [26]",90
same,"Plant response rating, Oat, Wild","oat, wild [17]; [27]",60
same,"Plant response rating, Pigweed, Palmer","pigweed, palmer [18]; [26]",100
same,"Plant response rating, Pigweed, Palmer","pigweed, palmer [18]; [27]",80
same,"Plant response rating, Ragweed",ragweed [19]; [26],70
same,"Plant response rating, Ragweed",ragweed [19]; [27],50
same,"Plant response rating, Ryegrass, Italian","ryegrass, Italian [20]; [26]",70
same,"Plant response rating, Ryegrass, Italian","ryegrass, Italian [20]; [27]",20
same,"Plant response rating, Soybean",soybean [21]; [26],100
same,"Plant response rating, Soybean",soybean [21]; [27],100
same,"Plant response rating, Wheat",wheat [22]; [26],60
same,"Plant response rating, Wheat",wheat [22]; [27],30
same,"Plant response rating, Galium",galium; [26],100
same,"Plant response rating, Galium",galium; [27],100
same,"Plant response rating, Horseweed",horseweed; [26],80
same,"Plant response rating, Horseweed",horseweed; [27],30
same,"Plant response rating, Barnyardgrass (Flood)",barnyardgrass [23],0
same,"Plant response rating, Ducksalad (Flood)",ducksalad,0
same,"Plant response rating, Rice (Flood)",rice,0
same,"Plant response rating, Sedge, Umbrella (Flood)","sedge, umbrella",0
COc1ccc(-n2cncn2)cc1C(=O)N1C[C@H](C)Oc2c(Cl)cccc21 [Compound 241],"Plant response rating, Barnyardgrass",barnyardgrass [1]; [28],100
same,Barnyardgrass plant response rating,barnyardgrass [1]; [29],90
same,"Plant response rating, Blackgrass",blackgrass [2]; [28],70
same,Blackgrass plant response rating,blackgrass [2]; [29],50
same,"Plant response rating, Corn",corn [3]; [28],70
same,Corn plant response rating,corn [3]; [29],20
same,"Plant response rating, Foxtail, Green",green foxtail [4]; [28],100
same,"Foxtail, Green plant response rating",green foxtail [4]; [29],100
same,"Plant response rating, Kochia",kochia [5]; [28],80
same,Kochia plant response rating,kochia [5]; [29],20
same,"Plant response rating, Oat, Wild","oat, wild [6]; [28]",90
same,"Oat, Wild plant response rating","oat, wild [6]; [29]",50
same,"Plant response rating, Pigweed, Palmer","pigweed, palmer [7]; [28]",100
same,"Pigweed, Palmer plant response rating","pigweed, palmer [7]; [29]",100
same,"Plant response rating, Ragweed",ragweed [8]; [28],10
same,Ragweed plant response rating,ragweed [8]; [29],10
same,"Plant response rating, Ryegrass, Italian","ryegrass, Italian [9]; [28]",90
same,"Ryegrass, Italian plant response rating","ryegrass, Italian [9]; [29]",90
same,"Plant response rating, Soybean",soybean [10]; [28],100
same,Soybean plant response rating,soybean [10]; [29],100
same,"Plant response rating, Wheat",wheat [11]; [28],90
same,Wheat plant response rating,wheat [11]; [29],60
same,"Plant response rating, Barnyardgrass",barnyardgrass [12]; [30],100
same,"Plant response rating, Barnyardgrass",barnyardgrass [12]; [31],100
same,"Plant response rating, Blackgrass",blackgrass [13]; [30],90
same,"Plant response rating, Blackgrass",blackgrass [13]; [31],100
same,"Plant response rating, Corn",corn [14]; [30],60
same,"Plant response rating, Corn",corn [14]; [31],100
same,"Plant response rating, Foxtail, Green",green foxtail [15]; [30],90
same,"Plant response rating, Foxtail, Green",green foxtail [15]; [31],90
same,"Plant response rating, Kochia",kochia [16]; [30],20
same,"Plant response rating, Kochia",kochia [16]; [31],70
same,"Plant response rating, Oat, Wild","oat, wild [17]; [30]",60
same,"Plant response rating, Oat, Wild","oat, wild [17]; [31]",90
same,"Plant response rating, Pigweed, Palmer","pigweed, palmer [18]; [30]",70
same,"Plant response rating, Pigweed, Palmer","pigweed, palmer [18]; [31]",90
same,"Plant response rating, Ragweed",ragweed [19]; [30],50
same,"Plant response rating, Ragweed",ragweed [19]; [31],90
same,"Plant response rating, Ryegrass, Italian","ryegrass, Italian [20]; [30]",90
same,"Plant response rating, Ryegrass, Italian","ryegrass, Italian [20]; [31]",100
same,"Plant response rating, Soybean",soybean [21]; [30],100
same,"Plant response rating, Soybean",soybean [21]; [31],100
same,"Plant response rating, Wheat",wheat [22]; [30],50
same,"Plant response rating, Wheat",wheat [22]; [31],90
same,"Plant response rating, Galium",galium; [30],100
same,"Plant response rating, Galium",galium; [31],100
same,"Plant response rating, Horseweed",horseweed; [30],50
same,"Plant response rating, Horseweed",horseweed; [31],90
same,"Plant response rating, Barnyardgrass (Flood)",barnyardgrass [23],50
same,"Plant response rating, Ducksalad (Flood)",ducksalad,90
same,"Plant response rating, Rice (Flood)",rice,15
same,"Plant response rating, Sedge, Umbrella (Flood)","sedge, umbrella",100
